Test results taken from patent publication US11220524B2, “Selective inhibitors of protein arginine methyltransferase 5 (PRMT5)” (PRELUDE THERAPEUTICS, INCORPORATED, priority 2017, dated 2022).
Counter-ions that a name gives are not always drawn. Like-named read-outs stand apart in the source and are kept apart here.

How the values were obtained:
[1] = target: PRMT5/MEP50 complex (Homo sapiens (Human), UniProt O14744); assay: Biochemical assay: PRMT5/MEP50 methylation of histone H2A with 3H-SAM, filter plate scintillation
Description: Biochemical Assay Protocol
Compounds were solubilized, and 3-fold diluted in 100% DMSO. […] Standard reactions were performed in a total volume of […] assay buffer, with histone H2A (5 μM final) as substrate. To this was added the PRMT5/MEP50 complex diluted to provide a final assay concentration of 5 nM and the compounds were allowed to preincubate for 15 to 20 minutes at room temperature. The reaction was initiated by adding S-[3H-methyl]-adenosyl-L-methionine (PerkinElmer) to final concentration of 1 μM. Following a 60 minutes incubation at 30° C., the reaction was stopped by adding 100 μL of 20% TCA. Each reaction was spotted onto filter plate (MultiScreen FB Filter Plate, Millipore), and washed 5 times with PBS buffer, Scintillation fluid was added to the filter plate and read in a scintillation counter. IC50 values were determined by fitting the data to the standard 4 parameters with Hill Slope using GraphPad Prism software.

[2] = tested on: Symmetric Di-Methyl Arginine (sDMA) in Granta-519 cells; assay: Western blot for symmetric di-methyl arginine (sDMA) marks in Granta cells, 3 days treatment; type: cell-based; details: Homo sapiens; for IC50: 3 days; for inhibition at 1 µM: Granta-519
Description: Cell Treatment and Western Blotting for Detecting Symmetric Di-Methyl Arginine (sDMA) and Histone H3R8 Dimethyl Symmetric (H3R8me2s) Marks
Initial compounds screening in A549 cells: Compounds were dissolved in DMSO to make 10 mM stock and further diluted to 0.1, and 1 mM. A549 cells were maintained in PRMI 1640 (Corning Cellgro, Catalog #: 10-040-CV) medium supplemented with 10% v/v FBS (GE Healthcare, Catalog #: SH30910.03). One day before experiment, 1.25×10^5 cells were seeded in 6 well plate in 3 mL medium and incubated overnight. The next day, medium was changed and 3 uL of compound solution was added (1:1,000 dilution, 0.1 and 1 uM final concentration; DMSO concentration: 0.1%), and incubated for 3 days. Cells incubated with DMSO was used as a vehicle control. Cells were washed once with PBS, trypsinized in 150 uL 0.25% Trypsin (Corning, Catalog #: 25-053-CI), neutralized with 1 mL complete medium, transferred to microcentrifuge tubes and collected. Cell pellet was then resuspended in 15 uL PBS, lysed in 4% SDS, and homogenized by passing through homogenizer column (Omega Biotek, Catalog #: HCR003). Total protein concentrations were determined by BCA assay (ThermoFisher Scientific, Catalog #: 23225). Lysates were mixed with 5× Laemmli buffer and boiled for 5 min. Forty ug of total protein was separated on SDS-PAGE gels (Bio-Rad, catalog #: 4568083, 4568043), transferred to PVDF membrane, blocked with 5% dry milk (Bio-Rad, Catalog #: 1706404) in TBS with 0.1% v/v Tween 20 (TBST) for 1 hour at room temperature (RT), and incubated with primary antibodies (sDMA: Cell signaling, Catalog #: 13222, 1:3,000; H3R8me2s: Epigentek, Catalog #: A-3706-100, 1:2,000; β-Actin: Abcam, Catalog #: ab8227, 1:10,000) in 5% dry milk in TBST at 4° C. for overnight. The next day, membranes were washed with TBST, 5×5 min, and incubated withhP conjugated seconded antibody (GE Healthcare; Catalog #: NA934-1ML; 1:5,000) for 2 hours at RT, followed by 5×5 min washes with TBST, and incubation with ECL substrates (Bio-Rad, Catalog #: 1705061, 1705062). Chemiluminescent signal was captured with FluoChem HD2 imager (Proteinsimple) and analyzed by ImageJ.
Cells incubated with DMSO was used as a vehicle control. Cells were harvested and subjected to western blot analysis as described above. SmD3me2s and H3R8me2s bands were quantified by ImageJ. Signals were normalized to β-Actin and DMSO control. IC50 values were calculated using Graphpad Prism.

[3] = biochemical potency, read-out: PRTMT5/MEP50 IC50
[4] = Granta-519, 72 h, Granta cell line
[5] = histone H2A 5 μM, SAM 1 μM, enzyme 5 nM, read-out: PRMT5/MEP50 IC50

Sequence of PRMT5/MEP50 complex (O14744 whole entry): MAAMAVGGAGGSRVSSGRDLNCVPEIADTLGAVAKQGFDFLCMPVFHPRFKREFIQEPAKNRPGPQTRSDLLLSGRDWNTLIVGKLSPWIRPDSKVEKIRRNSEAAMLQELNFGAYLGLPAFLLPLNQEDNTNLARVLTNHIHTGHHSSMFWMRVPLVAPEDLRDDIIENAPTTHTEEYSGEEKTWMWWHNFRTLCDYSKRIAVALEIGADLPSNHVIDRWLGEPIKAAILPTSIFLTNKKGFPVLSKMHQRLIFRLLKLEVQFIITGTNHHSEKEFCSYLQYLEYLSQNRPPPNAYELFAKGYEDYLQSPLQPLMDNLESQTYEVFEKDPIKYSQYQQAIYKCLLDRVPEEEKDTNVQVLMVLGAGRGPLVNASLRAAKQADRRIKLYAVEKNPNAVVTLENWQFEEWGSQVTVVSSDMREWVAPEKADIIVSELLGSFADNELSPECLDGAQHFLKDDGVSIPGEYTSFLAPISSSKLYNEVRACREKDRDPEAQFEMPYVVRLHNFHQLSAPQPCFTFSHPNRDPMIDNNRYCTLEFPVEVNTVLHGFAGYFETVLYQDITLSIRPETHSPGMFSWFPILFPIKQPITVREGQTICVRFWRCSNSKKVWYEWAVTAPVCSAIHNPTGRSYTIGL
Sequence of PRMT5/MEP50 complex (Q9BQA1 whole entry partner): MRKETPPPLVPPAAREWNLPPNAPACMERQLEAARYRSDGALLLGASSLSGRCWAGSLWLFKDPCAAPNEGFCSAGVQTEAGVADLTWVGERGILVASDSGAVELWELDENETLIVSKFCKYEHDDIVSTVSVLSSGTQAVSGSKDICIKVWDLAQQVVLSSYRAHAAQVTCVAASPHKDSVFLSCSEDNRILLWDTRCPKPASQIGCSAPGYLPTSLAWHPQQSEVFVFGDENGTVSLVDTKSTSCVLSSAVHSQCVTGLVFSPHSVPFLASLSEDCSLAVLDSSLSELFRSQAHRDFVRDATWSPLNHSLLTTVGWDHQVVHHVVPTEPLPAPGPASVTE

SMILES | IC50 [1, 3] [nM] | IC50 [2, 4] [nM] | IC50 [1, 5] [nM] | IC50 ([2]; 72 h, Granta-519 cell line) [nM] | inhibition at 1 µM [2] [%]
C[C@@](O)(c1ccc(Cl)s1)[C@H]1O[C@@H](n2ccc3c(N)ncnc32)[C@H](O)[C@@H]1O [Example 21-C, (2R,3R,4S,5S)-2-(4-amino-7H-pyrrolo[2,3-d]pyrimidin-7-yl)-5-((S)-1-(5-chlorothiophen-2-yl)-1-hydroxyethyl)tetrahydrofuran-3,4-diol] | 0.9 | 7 |  |  | 
N/N=c1/nc[nH]c2c1ccn2[C@@H]1C[C@H]([C@H](O)c2ccc(F)c(F)c2)[C@@H](O)[C@H]1O [Example 37-B, 7-[(1R,2S,3R,4R)-4-[(S)-(3,4-difluorophenyl)-hydroxy-methyl]-2,3-dihydroxy-cyclopentyl]-1H-pyrrolo[2,3-d]pyrimidin-4-one hydrazone hydrochloride] | 6.3 | 100000 |  |  | 
CN(N)c1ncnc2c1ccn2[C@@H]1C[C@H](CCc2ccc3ccc(NCC4CC4)nc3c2)[C@@H](O)[C@H]1O [Example 79-B, (1S,2R,3S,5R)-3-(2-(2-((cyclopropylmethyl)amino)quinolin-7-yl)ethyl)-5-(4-(1-methylhydrazineyl)-7H-pyrrolo[2,3-d]pyrimidin-7-yl)cyclopentane-1,2-diol] | 8.2 | 97 |  |  | 
CNc1ccc2ccc(CC[C@H]3C[C@@H](n4ccc5/c(=N/OC)nc[nH]c54)[C@H](O)[C@@H]3O)cc2n1 [Example 84-B, 7-((1R,2S,3R,4S)-2,3-dihydroxy-4-(2-(2-(methylamino)quinolin-7-yl)ethyl)cyclopentyl)-1,7-dihydro-4H-pyrrolo[2,3-d]pyrimidin-4-one O-methyl oxime] | 2.7 | 16 |  |  | 
CO/N=c1\nc[nH]c2c1ccn2[C@@H]1C[C@H](CCc2ccc3ccc(N)nc3c2)[C@@H](O)[C@H]1O [Example 85-B, 7-((1R,2S,3R,4S)-4-(2-(2-aminoquinolin-7-yl)ethyl)-2,3-dihydroxycyclopentyl)-1,7-dihydro-4H-pyrrolo[2,3-d]pyrimidin-4-one O-methyl oxime] | 0.64 | 0.9 |  |  | 
CO/N=c1\nc[nH]c2c1ccn2[C@@H]1C[C@H](CCc2ccc3cc(Cl)c(N)nc3c2)[C@@H](O)[C@H]1O [Example 86-B, (Z)-7-((1R,2S,3R,4S)-4-(2-(2-amino-3-chloroquinolin-7-yl)ethyl)-2,3-dihydroxycyclopentyl)-3,7-dihydro-4H-pyrrolo[2,3-d]pyrimidin-4-one O-methyl oxime] | 0.2 | 3 |  |  | 
O/N=c1\nc[nH]c2c1ccn2[C@@H]1C[C@H](CCc2ccc3ccc(NCC4CC4)nc3c2)[C@@H](O)[C@H]1O [Example 87-B, 7-((1R,2S,3R,4S)-4-(2-(2-((cyclopropylmethyl)amino)quinolin-7-yl)ethyl)-2,3-dihydroxycyclopentyl)-1,7-dihydro-4H-pyrrolo[2,3-d]pyrimidin-4-one oxime] | 0.33 | 1.7 |  |  | 
CN/N=c1\nc[nH]c2c1ccn2[C@@H]1C[C@H](CCc2ccc3ccc(NCC4CC4)nc3c2)[C@@H](O)[C@H]1O [Example 91-B, (1S,2R,3S,5R)-3-(2-(2-((cyclopropylmethyl)amino)quinolin-7-yl)ethyl)-5-((Z)-4-(2-methylhydrazineylidene)-1,4-dihydro-7H-pyrrolo[2,3-d]pyrimidin-7-yl)cyclopentane-1,2-diol] | 3.2 | 46.8 |  |  | 
CO/N=c1\nc[nH]c2c1ccn2[C@@H]1C[C@H]([C@H](O)c2ccc(Cl)c(Cl)c2)[C@@H](O)[C@H]1O [Example 92-B, 7-((1R,2S,3R,4R)-4-((S)-(3,4-dichlorophenyl)(hydroxy)methyl)-2,3-dihydroxycyclopentyl)-1,7-dihydro-4H-pyrrolo[2,3-d]pyrimidin-4-one O-methyl oxime] | 19.9 | 335 |  |  | 
CO/N=c1\nc[nH]c2c1ccn2[C@@H]1O[C@H]([C@H](O)c2ccc(C(F)(F)F)c(C)c2)[C@@H](O)[C@H]1O [Example 98, 7-((2R,3R,4S,5R)-3,4-dihydroxy-5-((R)-hydroxy(3-methyl-4-(trifluoromethyl)phenyl)methyl)tetrahydrofuran-2-yl)-1,7-dihydro-4H-pyrrolo[2,3-d]pyrimidin-4-one O-methyl oxime] |  |  | 8.4 | 9 | 

Second part, led by results:

IC50 [1, 3] [nM] | IC50 [2, 4] [nM] | IC50 [1, 5] [nM] | IC50 ([2]; 72 h, Granta-519 cell line) [nM] | SMILES | inhibition at 1 µM [2] [%]
47 | ~3000 |  |  | N/N=c1/nc[nH]c2c1ccn2[C@@H]1C[C@H]([C@H](O)c2ccc(Cl)cc2)[C@@H](O)[C@H]1O [Example 25-B, 7-[(1R,2S,3R,4R)-4-[(S)-(4-chlorophenyl)-hydroxy-methyl]-2,3-dihydroxy-cyclopentyl]-1H-pyrrolo[2,3-d]pyrimidin-4-one hydrazone hydrochloride] | 
11.7 | ~600 |  |  | O/N=c1/nc[nH]c2c1ccn2[C@@H]1C[C@H]([C@H](O)c2ccc(Cl)cc2)[C@@H](O)[C@H]1O [Example 50-B, 7-[(1R,2S,3R,4R)-4-[(S)-(4-chlorophenyl)-hydroxy-methyl]-2,3-dihydroxy-cyclopentyl]-1H-pyrrolo[2,3-d]pyrimidin-4-one oxime hydrochloride] | 
3.4 | 53 |  |  | C[C@@](O)(c1ccc(Cl)c(Cl)c1)[C@H]1C[C@@H](n2ccc3/c(=N\O)nc[nH]c32)[C@H](O)[C@@H]1O [Example 94-B, 7-((1R,2S,3R,4S)-4-((S)-1-(3,4-dichlorophenyl)-1-hydroxyethyl)-2,3-dihydroxycyclopentyl)-1,7-dihydro-4H-pyrrolo[2,3-d]pyrimidin-4-one oxime] | 
 |  | 436 | 3360 | CO/N=c1\nc[nH]c2c1ccn2[C@@H]1O[C@H]([C@H](OC)c2ccc(Cl)c(F)c2)[C@@H](O)[C@H]1O [Example 102, 7-((2R,3R,4S,5S)-5-((R)-(4-chloro-3-fluorophenyl)(methoxy)methyl)-3,4-dihydroxytetrahydrofuran-2-yl)-1,7-dihydro-4H-pyrrolo[2,3-d]pyrimidin-4-one O-methyl oxime] | 
 |  | 188 |  | CN/N=c1/nc[nH]c2c1ncn2[C@@H]1O[C@H]([C@H](O)c2ccc(Cl)cc2)[C@@H](O)[C@H]1O [compound 52, (2R,3S,4R,5R)-2-[(R)-(4-chlorophenyl)-hydroxy-methyl]-5-[6-(methylhydrazono)-3H-purin-9-yl]tetrahydrofuran-3,4-diol; 2,2,2-trifluoroacetic Acid] | 39
 |  | 25.6 |  | O/N=c1/nc[nH]c2c1ncn2[C@@H]1O[C@H]([C@H](O)c2ccc(Cl)cc2)[C@@H](O)[C@H]1O [compound 54, 9-[(2R,3R,4S,5R)-5-[(R)-(4-chlorophenyl)-hydroxy-methyl]-3,4-dihydroxy-tetrahydrofuran-2-yl]-3H-purin-6-one oxime trifluoroacetic Acid Salt] | 55
 |  | 2.8 | 45 | C[C@@](O)(c1ccc(Cl)cc1)[C@H]1O[C@@H](n2ccc3/c(=N/O)nc[nH]c32)[C@H](O)[C@@H]1O [compound 59, 7-((2R,3R,4S)-5-((R)-1-(4-chlorophenyl)-1-hydroxyethyl)-3,4-dihydroxytetrahydrofuran-2-yl)-1,7-dihydro-4H-pyrrolo[2,3-d]pyrimidin-4-one oxime hydrochloride] | 
 |  | 37.7 | 438 | CO/N=c1\nc[nH]c2c1ccn2[C@@H]1O[C@H]([C@](C)(O)c2ccc(Cl)cc2)[C@@H](O)[C@H]1O [compound 60, 7-((2R,3R,4S)-5-((R)-1-(4-chlorophenyl)-1-hydroxyethyl)-3,4-dihydroxytetrahydrofuran-2-yl)-1,7-dihydro-4H-pyrrolo[2,3-d]pyrimidin-4-one O-methyl oxime] | 
